Where a SMILES comes first, the peptide text is derived from it. [ ]: non-standard residue; d: D form. The star is where a group is joined. Decanoyl = CCCCCCCCCC(=O)*; Ac6c = NC1(C(=O)O)CCCCC1; Orn = NCCC[C@H](N)C(=O)O; X1 = CCCN1C(=O)CC(*)C1=O
Tests used:
[1] = Rat plasma half-life assay (LC-MS); type: in vitro ADME; conditions: incubated at 37° C., read-out: Rat Plasma T½ (converted)
Outline: (§1)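 Aliquots taken from human or rat plasma at time points up to 72 h, quenched with formic acid and acetonitrile, centrifuged. Supernatant analyzed by LC-MS (ESI, positive ion, full scan) on a C8 column with a water/acetonitrile 1% formic acid gradient.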

[2] = target: T1, human recombinant GIP receptor (Homo sapiens, UniProt P48546); test: In vitro hGIP receptor binding assay ([125I]GIP displacement, CHO-K1 membranes)
T1 construct: expressed in transfected cells; host or cells: CHO-K1 clonal cells (membranes)
T1 sequence (P48546 22-466): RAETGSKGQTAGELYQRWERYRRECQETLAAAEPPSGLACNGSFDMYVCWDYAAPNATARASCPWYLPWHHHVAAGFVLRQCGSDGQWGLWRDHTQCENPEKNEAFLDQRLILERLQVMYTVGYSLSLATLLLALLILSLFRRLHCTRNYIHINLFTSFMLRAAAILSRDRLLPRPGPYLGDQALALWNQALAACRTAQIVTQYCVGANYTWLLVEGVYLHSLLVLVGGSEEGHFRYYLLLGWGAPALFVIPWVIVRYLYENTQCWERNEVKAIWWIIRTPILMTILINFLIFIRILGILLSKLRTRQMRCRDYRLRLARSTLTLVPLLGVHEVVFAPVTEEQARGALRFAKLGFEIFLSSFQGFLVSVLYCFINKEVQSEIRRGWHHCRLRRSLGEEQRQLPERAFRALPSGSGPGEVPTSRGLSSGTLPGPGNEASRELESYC
Text: A. In Vitro hGIP Receptor Binding Assay

[3] = Human plasma half-life assay (LC-MS); type: in vitro ADME; conditions: incubated at 37° C., read-out: Human Plasma T½ (converted)
Outline: as §1

SMILES | half-life at 0.1 mg/mL [1] | Ki [2] | half-life at 0.1 mg/mL [3] | half-life at 0.1 mg/ml [1] | half-life at 0.1 mg/ml [3]
CCCCCCCCCC(=O)NCCC[C@H](NC(=O)[C@H](CCCCN)NC(=O)[C@H](CCCCN)NC(=O)CNC(=O)[C@H](CCCCN)NC(=O)[C@H](CCC(N)=O)NC(=O)[C@H](C)NC(=O)[C@H](CC(C)C)NC(=O)[C@H](CC(C)C)NC(=O)[C@H](Cc1c[nH]c2ccccc12)NC(=O)[C@H](CC(N)=O)NC(=O)[C@@H](NC(=O)[C@H](Cc1ccccc1)NC(=O)[C@H](CC(=O)O)NC(=O)[C@H](CCC(N)=O)NC(=O)[C@H](CCC(N)=O)NC(=O)[C@H](Cc1c[nH]cn1)NC(=O)[C@@H](NC(=O)[C@H](CCCCN)NC(=O)[C@H](CC(=O)O)NC(=O)[C@H](CCSC)NC(=O)[C@H](C)NC(=O)[C@@H](NC(=O)[C@H](CO)NC(=O)[C@H](Cc1ccc(O)cc1)NC(=O)[C@H](CC(=O)O)NC(=O)[C@H](CO)NC(=O)C1(NC(=O)CCCCCCCCC)CCCCC1)[C@@H](C)CC)[C@@H](C)CC)C(C)C)C(=O)N[C@@H](CC(=O)O)C(=O)N[C@@H](Cc1c[nH]c2ccccc12)C(=O)N[C@@H](CCCCN)C(=O)N[C@@H](Cc1c[nH]cn1)C(=O)N[C@@H](CC(N)=O)C(=O)N[C@H](C(=O)N[C@H](C(=O)N[C@@H](CCC(N)=O)C(=O)O)[C@@H](C)O)[C@@H](C)CC [Example 21, [CH3-(CH2)8-C(O)-A6c^7, Orn^34(N-C(O)-(CH2)8-CH3)]hGIP(7-42)-OH] (Decanoyl-[Ac6c]SDYSIAMDKIHQQDFVNWLLAQKGKK[Orn](Decanoyl)DWKHNITQ-OH) | > 72 h | 163 nM | 8 h |  | 
CCCCCCCCCC(=O)NCCC[C@H](NC(=O)[C@H](CCCCN)NC(=O)[C@H](CCCCN)NC(=O)CNC(=O)[C@H](CCCCN)NC(=O)[C@H](CCC(N)=O)NC(=O)[C@H](C)NC(=O)[C@H](CC(C)C)NC(=O)[C@H](CC(C)C)NC(=O)[C@H](Cc1c[nH]c2ccccc12)NC(=O)[C@H](CC(N)=O)NC(=O)[C@@H](NC(=O)[C@H](Cc1ccccc1)NC(=O)[C@H](CC(=O)O)NC(=O)[C@H](CCC(N)=O)NC(=O)[C@H](CCC(N)=O)NC(=O)[C@H](Cc1c[nH]cn1)NC(=O)[C@@H](NC(=O)[C@H](CCCCN)NC(=O)[C@H](CC(=O)O)NC(=O)[C@H](CCSC)NC(=O)[C@H](C)NC(=O)[C@@H](NC(=O)[C@H](CO)NC(=O)[C@H](Cc1ccc(O)cc1)NC(=O)[C@H](CC(=O)O)NC(=O)[C@H](CO)NC(=O)C1(NC(C)=O)CCCCC1)[C@@H](C)CC)[C@@H](C)CC)C(C)C)C(=O)N[C@@H](CC(=O)O)C(=O)N[C@@H](Cc1c[nH]c2ccccc12)C(=O)N[C@@H](CCCCN)C(=O)N[C@@H](Cc1c[nH]cn1)C(=O)N[C@@H](CC(N)=O)C(=O)N[C@H](C(=O)N[C@H](C(=O)N[C@@H](CCC(N)=O)C(=O)O)[C@@H](C)O)[C@@H](C)CC [Example 19, [Ac-A6c^7, Orn^34(N-C(O)-(CH2)8-CH3)]hGIP(7-42)-OH] (Ac-[Ac6c]SDYSIAMDKIHQQDFVNWLLAQKGKK[Orn](Decanoyl)DWKHNITQ-OH) |  |  |  | 10.7 h | 18.9 h
CC[C@H](C)[C@H](NC(=O)[C@H](CO)NC(=O)[C@H](Cc1ccc(O)cc1)NC(=O)[C@H](CC(=O)O)NC(=O)[C@H](CO)NC(=O)C1(NC(C)=O)CCCCC1)C(=O)N[C@@H](C)C(=O)N[C@@H](CCSC)C(=O)N[C@@H](CC(=O)O)C(=O)N[C@@H](CCCCN)C(=O)N[C@H](C(=O)N[C@@H](Cc1c[nH]cn1)C(=O)N[C@@H](CCC(N)=O)C(=O)N[C@@H](CCC(N)=O)C(=O)N[C@@H](CC(=O)O)C(=O)N[C@@H](Cc1ccccc1)C(=O)N[C@H](C(=O)N[C@@H](CC(N)=O)C(=O)N[C@@H](Cc1c[nH]c2ccccc12)C(=O)N[C@@H](CC(C)C)C(=O)N[C@@H](CC(C)C)C(=O)N[C@@H](C)C(=O)N[C@@H](CCC(N)=O)C(=O)N[C@@H](CCCCN)C(=O)N[C@H](Cc1ccc2ccccc2c1)C(=O)N[C@@H](CCCCN)C(=O)N[C@@H](CCCCN)C(=O)N[C@@H](CC(N)=O)C(=O)N[C@@H](CC(=O)O)C(=O)N[C@@H](Cc1c[nH]c2ccccc12)C(=O)N[C@@H](CCCCN)C(=O)N[C@@H](Cc1c[nH]cn1)C(=O)N[C@@H](CC(N)=O)C(=O)N[C@H](C(=O)N[C@H](C(=O)N[C@@H](CCC(N)=O)C(=O)O)[C@@H](C)O)[C@@H](C)CC)C(C)C)[C@@H](C)CC [Example 25, (Ac-A6c^7, D-2Nal^31)hGIP(7-42)-OH] (HELM PEPTIDE1{[ac].[O=C(C1(N[*:1])CCCCC1)[*:2]].S.D.Y.S.I.A.M.D.K.I.H.Q.Q.D.F.V.N.W.L.L.A.Q.K.[O=C([C@@H](Cc1ccc2ccccc2c1)N[*:1])[*:2]].K.K.N.D.W.K.H.N.I.T.Q}$$$$V2.0) | 13.7 h |  | > 50 h |  | 
CCCN1C(=O)CC(SC[C@H](NC(=O)[C@H](CC(N)=O)NC(=O)[C@H](CCCCN)NC(=O)[C@H](CCCCN)NC(=O)CNC(=O)[C@H](CCCCN)NC(=O)[C@H](CCC(N)=O)NC(=O)[C@H](C)NC(=O)[C@H](CC(C)C)NC(=O)[C@H](CC(C)C)NC(=O)[C@H](Cc2c[nH]c3ccccc23)NC(=O)[C@H](CC(N)=O)NC(=O)[C@@H](NC(=O)[C@H](Cc2ccccc2)NC(=O)[C@H](CC(=O)O)NC(=O)[C@H](CCC(N)=O)NC(=O)[C@H](CCC(N)=O)NC(=O)[C@H](Cc2c[nH]cn2)NC(=O)[C@@H](NC(=O)[C@H](CCCCN)NC(=O)[C@H](CC(=O)O)NC(=O)[C@H](CCSC)NC(=O)[C@H](C)NC(=O)[C@@H](NC(=O)[C@H](CO)NC(=O)[C@H](Cc2ccc(O)cc2)NC(=O)[C@H](CC(=O)O)NC(=O)[C@H](CO)NC(=O)C2(NC(C)=O)CCCCC2)[C@@H](C)CC)[C@@H](C)CC)C(C)C)C(=O)N[C@@H](Cc2c[nH]c3ccccc23)C(=O)N[C@@H](CCCCN)C(=O)N[C@@H](Cc2c[nH]cn2)C(=O)N[C@@H](CC(N)=O)C(=O)N[C@H](C(=O)N[C@H](C(=O)N[C@@H](CCC(N)=O)C(=O)O)[C@@H](C)O)[C@@H](C)CC)C1=O (some centres unmarked) [Example 6, [Ac-A6c^7, Cys(Psu)^35]hGIP(7-42)-OH] (Ac-[Ac6c]SDYSIAMDKIHQQDFVNWLLAQKGKKNC(X1)WKHNITQ-OH) | 3.2 h |  | 8 h |  | 
CC[C@H](C)[C@H](NC(=O)[C@H](CCCCN)NC(=O)[C@H](CC(=O)O)NC(=O)[C@H](CCSC)NC(=O)[C@H](C)NC(=O)[C@@H](NC(=O)C1(NC(=O)[C@H](Cc2ccc(O)cc2)NC(=O)[C@H](CC(=O)O)NC(=O)[C@H](CO)NC(=O)[C@@H](NC(=O)[C@H](Cc2ccccc2)NC(=O)[C@@H](NC(=O)CNC(=O)[C@H](CCC(=O)O)NC(=O)CCc2ccc(O)cc2)[C@@H](C)O)[C@@H](C)CC)CCCCC1)[C@@H](C)CC)C(=O)N[C@@H](Cc1c[nH]cn1)C(=O)N[C@@H](CCC(N)=O)C(=O)N[C@@H](CCC(N)=O)C(=O)N[C@@H](CC(=O)O)C(=O)N[C@@H](Cc1ccccc1)C(=O)N[C@H](C(=O)N[C@@H](CC(N)=O)C(=O)N[C@@H](Cc1c[nH]c2ccccc12)C(=O)N[C@@H](CC(C)C)C(=O)N[C@@H](CC(C)C)C(=O)N[C@@H](C)C(=O)N[C@@H](CCC(N)=O)C(=O)N[C@@H](CCCCN)C(=O)NCC(=O)N[C@@H](CCCCN)C(=O)N[C@@H](CCCCN)C(=O)N[C@@H](CC(N)=O)C(=O)N[C@@H](CC(=O)O)C(=O)N[C@@H](Cc1c[nH]c2ccccc12)C(=O)N[C@@H](CCCCN)C(=O)N[C@@H](Cc1c[nH]cn1)C(=O)N[C@@H](CC(N)=O)C(=O)N[C@H](C(=O)N[C@H](C(=O)N[C@@H](CCC(N)=O)C(=O)O)[C@@H](C)O)[C@@H](C)CC)C(C)C [Example 46, (4Hppa^2, A6c^11)hGIP(2-42)-OH] | 11.9 h |  | 30.8 h |  | 
